Test results: patent US20230312652A1, “NOVEL PEPTIDES AND USES THEREOF” (Aarhus Universitet, priority 2020, published 2023)
Where a SMILES comes first, the peptide text is derived from it.

Tests used:
cortical neurons = assay: Survival of wild-type cortical neurons, MTT assay; assay type: cell-based, mouse
Procedure: Cortical neurons were isolated from p0 wild-type mice and seeded in a density of 50.000 in a 96-well plate pre-coated with poly-L and laminin and incubated at 37° C. in a 5% C02 atmosphere. At 7 days in vitro (DIV7) the neurons were treated by changing half the media with neurobasal A with B27 containing the peptides (P2, P4 or P6) to give a finale concentration of 1 uM and further incubated. The cortical neurons were treated in a likewise manner on DIV9 and DIV11. At DIV12 half the media was removed and 3-(4,5-dimethylthiazole-2-yl)-2,5-diphenyltetrazolium bromide (MTT) was added to the media to give a finale concentration of 0.5 mg/mL. MTT is reduced by mitochondrial enzymes in active cells to an insoluble product called formazan, which can be detected by colorimetry. Thus, the colour generated reflects activity and viable cells in the culture. The neurons were incubated for 4 hours with MTT and thereafter lysed in a 50% EtOH and 50% DMSO solution. To assure proper mixing of formazan, the plate was left to shake for 30 minutes before being measured at 570 nm and 650 nm. Student's t-test was used for statistical analysis.
Further, a drug-dose response on survival for peptide P1 was assessed in a similar manner.

[1] = Liver microsome stability, human; assay type: in vitro ADME; settings: 2 μM, up to 60 minutes
Procedure: Reactions were stopped at timepoints between 0-60 min. and samples analysed by LCMS.

ST HDH cells (Q111, Q7) = assay: Active mitochondrial mass in ST HDH cells, MitoTracker; assay type: cell-based, mouse
Procedure: The impact on mitochondrial function was assessed in ST HDH cells (mouse striatal cell line) expressing either HTT with a 111 polyglutamine stretch (Q111) or a 7 polyglutamine stretch (Q7), thereby serving as a model of HD. The cells were stimulated with P1 at timepoints between 0-24 hours and mitochondrial mass was subsequently measured using MitoTracker—a probe which binds to active mitochondria. Signal was measured in plate-reader at ex/em […].

[2] = Plasma binding, human plasma, ultracentrifugation; assay type: in vitro ADME
Procedure: For plasma binding, 2 μM P1 or Warfarin (positive control) were added to mouse or human plasma. After 30 minutes incubation at 37° C., samples where ultracentrifuged for 4 hours to generate protein-free samples for LCMS analysis. In parallel, plasma was incubated for 4.5 h to determine total levels after incubation. Plasma binding was calculated as % Bound=100*(1−F/T4.5), where F is concentration of free ligand and T4.5 is the concentration of total ligand after incubation.

CREB and AMPK = CREB and AMPK activation in brain of wild-type mice after subcutaneous injection; assay type: in vivo, mouse; settings: SC
Procedure: To assess the subcutaneous administration route of peptide P1, 8 weeks old wild-type mice were subcutaneously injected with different doses ranging between 0.13 to 26 mg/kg of peptide P1 dissolved in 4.38 mM L-His, 140 mM NaCl, 0.2% Tween-20 and 1500 IU hyaluronidase (pH 6.15). Likewise, was an earlier lead peptide constituting a linear version of P1 attached to a cell-penetrating moiety (P9, SEQ ID NO: 9), tested for its ability to activate CREB in both striatum and hippocampus (in a separate study) following subcutaneous injection with 3.6 mg/kg. 2 hours after injection the mice were sacrificed by cervical dislocation and striatal tissue was isolated by dissection and snap frozen in liquid nitrogen and stored at −80° C. until further use. To assess the activation of CREB and AMPK, the tissue was lysed using a TissueLyser in lysis buffer containing cOmplete and DTT. The samples were subsequently homogenized by sonication. The phosphorylation of CREB on serine 133 and threonine 172 on AMPK was subsequently validated by western blotting and the levels of were normalized to beta-actin. Student's t-test was used for statistical analysis.

[3] = Plasma stability, mouse plasma; assay type: in vitro ADME; settings: 2 μM, 37° C.
Procedure: Mouse or human plasma were incubated with 2 μM of P1 (SEQ ID NO: 1) or propantheline bromide (positive control for degradation) and left at 37° C. At each time point, stop solution was added to precipitate the solution and after mixing and centrifugation, supernatant was used for LCMS analysis.

[4] = system: BDNF, TrkB, PGC1a, DARPP32; assay: Neurotrophic and mitochondrial proteins in cortex of R6/2 mice after daily SC administration; assay type: in vivo, mouse; settings: 13 mg/kg SC daily, 8 to 12 weeks of age
Procedure: In a separate study, we validated target engagement of P1 (SEQ ID NO: 1) in R6/2 mice (mouse model of Huntington's), when treated for a prolonged period in the late stage of disease in this model. R6/2 mice were obtained from the Jackson Laboratory as: • FEMALE B6CBA-Tg(HDexon1)62Gpb/3J, stock 006494. Hemizygous (R6/2) • FEMALE B6CBA-Tg(HDexon1)62Gpb/3J, stock 006494. NonCarrier (WT controls)
The R6/2 mice were injected with a daily dose of 13 mg/kg of P1 subcutaneously in 4.38 mM L-His, 140 mM NaCl, 0.2% Tween-20 and 1500 IU hyaluronidase (pH 6.15) between 8 weeks to 12 weeks of age. At 12 weeks of age, mice were sacrificed and their brains removed and both hippocampus—cortex and striatal tissue was isolated and lysed in RIPA lysis buffer containing containing cOmplete and phosSTOP.
Levels of both BDNF and its receptor, TrkB, were validated along with levels of the mitochondrial master regulator PGC1a. In addition, levels of DARPP32, a marker of medium spiny neurons (MSN), which are the neurons that ultimately perish in HD, were evaluated in cortex tissue.

CYP450 enzymes = assay: Cytochrome P450 inhibition in liver microsomes; assay type: in vitro ADME; settings: dose-range of P1, with or without NADPH
Procedure: Liver microsomes were prepared with cocktails of known substrates of the respective CYP450 enzymes to evaluate the effects of P1 on enzyme inhibition. For each CYP-enzyme a previously described inhibitor was used as a positive control. Sample solutions were pre-incubated with P1 (10 mM) or inhibitor at 37° C. for ten minutes before addition of NADPH. Enzyme activity was measured in samples containing a dose-range of P1 with or without NAPDH (substrate used by the liver enzymes in detoxification steps). Reactions were incubated for 10 minutes before the reactions were stopped and analysed by LCMS to detect CYP metabolites.

For `CSCC[C@@H]1NC(=O)[C@H](C(C)C)NC(=O)[C@H](CC(=O)O)NC(=O)[C@H](CCC(=O)O)NC(=O)[C@H](CCC(=O)O)NC(=O)[C@H](Cc2c[nH]cn2)NC(=O)[C@H](CCC(=O)O)NC(=O)[C@H](C(C)C)NC(=O)[C@@H]2CCCN2C(=O)[C@H](CCC(=O)O)NC(=O)[C@H]([C@@H](C)O)NC1=O` [Peptide P1, [MTEPVEHEEDV]] (cyclo(MTEPVEHEEDV)), the “survival in drug-dose response study” value (cortical neurons; BDNF as positive control) was “increases survival”, the EC50 (cortical neurons; drug-dose response, Example 5) was 2700 nM and the “clearance and stability in liver microsomes” value [1] was “low clearance and high stability”. The mitochondrial mass (ST HDH cells (Q111, Q7); Q7 cells) was “mitochondrial mass is increased”, the mitochondrial mass (ST HDH cells (Q111, Q7); Q111 cells, 24 hours) was “increased above the baseline from the healthy cell line” and the plasma binding ([2]; 2 μM) was 20%. For the same molecule, the fraction unbound at 30 min, 2 μM ([2]; read-out: compound unbound in plasma) was over 0.75, the “dose resulting in the highest efficacy” value (CREB and AMPK; CREB and AMPK activation in striatum) was 13 mg/kg and the pAMPK in striatum (CREB and AMPK; doses between 0.13-13 mg/kg, 2 hours after injection) was “significantly activated”. For the same molecule, the “pCREB (S133) in striatum” value (CREB and AMPK; doses between 0.13-26 mg/kg, 2 hours after injection) was “significantly activated”, the half-life [3] was over 4.82 h and the “BDNF levels in cortex” value [4] was “significantly higher basal levels”. The “DARPP32 levels in cortex” value [4] was “tendency to increase”, the “PGC1a levels in cortex” value [4] was “significantly higher basal levels” and the “TrkB levels in cortex” value [4] was “significantly higher basal levels”. For the same molecule, the CYP-inhibition (CYP450 enzymes) was “no CYP-inhibition effects”.
